Source: US20160257988A1, “Indicator Molecules For Use In Detecting Enzyme Cleavage Activity” (Mologic Limited, priority 2013, published 2016)

Target: T1, Matrix-Metalloproteinase 9 (MMP9) (Homo sapiens, UniProt P14780)
T1 construct: 5 μl sample (active MMP9 at 2 μg/ml)
Assay: Fluorogenic peptide cleavage assay with active MMP9 (kinetic fluorescence scan)
Assay type: biochemical
Conditions: active MMP9 at 2 μg/ml, 5 μl of 0.2 mM peptide per well; excitation 328 nm, emission 400 nm; kinetic scan 30 min; FIG. 3
Method: 2 flurogenic peptides with 1 (PCL0174 A4) or 2 (PCL0174 B1) cleavable sequences respectively were investigated with sensitivity towards Matrix-Metalloproteinase 9 (MMP9).
96-well assay plate, black polystyrene, Costar®, Corning Inc. (Cat. #3925, lot #25011023)
MMP buffer, Aq. Solution of 50 mM Tris, 100 mM sodium chloride, 10 mM Calcium Chloride, 50 μM […] zinc chloride, 0.025% Brij 35, 0.05% sodium azide at pH 8.0.
Peptides PCL0174 A4 and PCL0174 B1 at a molar concentration of 8 mM
Testing Method • Peptides at a stock of 8 mM were diluted to 0.2 mM in MMP buffer • 2 μl+78 μl MMP buffer • 5 μl sample (active MMP9 at 2 μg/ml)+190 μl MMP buffer added to well • 5 μl of 0.2 mM peptide added per well • Read on a Fluorometer using the following settings: • Excitation wavelength: 328 nm, bandwidth 5 nm • Emission wavelength: 400 nm, bandwidth 5 nm • Kinetic scan: 30 min, interval 1 min

T1 sequence (P14780 107-707 limits assumed, species assumed): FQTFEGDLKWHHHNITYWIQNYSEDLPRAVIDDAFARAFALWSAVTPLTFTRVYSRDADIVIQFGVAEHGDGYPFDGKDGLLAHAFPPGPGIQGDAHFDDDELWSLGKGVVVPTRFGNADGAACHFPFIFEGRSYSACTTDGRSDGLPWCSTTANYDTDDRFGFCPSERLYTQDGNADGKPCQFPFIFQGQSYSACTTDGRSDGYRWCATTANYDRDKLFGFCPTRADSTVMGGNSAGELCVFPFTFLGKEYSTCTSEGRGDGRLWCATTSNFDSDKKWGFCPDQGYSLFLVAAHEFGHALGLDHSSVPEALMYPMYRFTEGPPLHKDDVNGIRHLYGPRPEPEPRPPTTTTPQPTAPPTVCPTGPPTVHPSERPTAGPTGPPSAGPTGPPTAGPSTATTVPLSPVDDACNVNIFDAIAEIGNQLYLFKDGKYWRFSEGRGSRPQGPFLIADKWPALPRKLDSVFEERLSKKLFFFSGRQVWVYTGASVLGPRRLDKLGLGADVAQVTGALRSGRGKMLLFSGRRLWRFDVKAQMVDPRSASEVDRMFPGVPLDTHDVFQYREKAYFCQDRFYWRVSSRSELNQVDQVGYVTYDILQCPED

Row | running time at which the same result (signal) is achieved | Substance
1 | 8 min | Lys(Mc Coumarin)-[GPQGIFGQ])-[GPQGIFGQ]-Lys(Dnp)G [2 CS]
2 | 30 min | Lys(Mc Coumarin)-[GPQGIFGQ]-Lys(Dnp)G [1 CS]
